{"source": "patent US20220194959A1", "about": "“CRYSTAL FORM OF EGFR INHIBITOR AND PREPARATION METHOD THEREOF” (MEDSHINE DISCOVERY INC., priority 2019, published 2022)", "assay_type_in_all_cases": "physicochemical", "key": {"[1]": {"test": "Hygroscopicity study by dynamic vapor sorption (DVS)", "description": "1.4. Dynamic Vapor Sorption, DVS Method\nInstrument model: SMS DVS Advantage dynamic vapor sorption apparatus\nTest conditions: The sample (10 to 15 mg) is weighed and placed in a DVS sample pan for testing.\nThe detailed DVS parameters are as follows:\nEquilibration: dm/dt=0.01%/min (The shortest time: 10 min, and the longest time: 180 min)\nDrying: Dried for 120 min at 0% RH\nRH (%) test gradient: 10%\nRange of RH (%) test gradient: 0%-90%-0%\nThe classification of hygroscopicity evaluation is as follows:\n10-15 mg of the crystal form A and the crystal form C of the compound of formula (II) were weighed and placed into a DVS sample pan for testing."}, "[2]": {"test": "Water activity assay (stability of the crystal form in water with different activities)", "conditions": "methanol/water, stirred two days, XRPD", "description": "The stability of the crystal form in water with different activities was determined.\nAbout 30 mg of the crystal form A of the compound of formula (II) was weighed and placed in a 1.5 mL liquid phase vial. A magnetic bar was added, and an appropriate amount of water activity agent in a system of methanol and water was pipetted into the liquid phase vial. The suspension sample was mixed well and then placed on a magnetic stirrer (25° C., 700 rpm). After stirring for two days, the wet sample was determined by XRPD."}, "[3]": {"test": "Solubility assay in media with different pHs", "conditions": "for Solubility (24 hours) / Solubility (2 hours): 37° C.; for Final pH: filtrate of saturated solution", "description": "(§1) 9 parts of 4 mg of the crystal form A of the compound of formula (II) were weighed and added to a 1.5 mL sample bottle, respectively, and then 1 mL of different media (0.1 mol/L HCl, 0.01 mol/L HCl, pH3.8 buffer solution, pH4.5 buffer solution, pH5.5 buffer solution, pH6.0 buffer solution, pH6.8 buffer solution, pH7.4 buffer solution, and water) were added, respectively. Based on the dissolution situation, the raw material compound was continuously added until a saturated solution was formed. The magnetic bar was added to the above suspension, and the suspension was placed on a magnetic stirrer (37° C., protected from light) and stirred. […] The upper layer of the sample was filtered with a filter membrane, and the pH value of the filtrate was determined. The saturated solubility of the compound was determined by HPLC.\nas §1, with “C” for “A”"}, "[4]": {"test": "Stability assay under illumination, high humidity, high temperature and acceleration (related substances and crystal form)", "parameters": "Total impurity: unit not given here", "conditions": "for Change of crystal form: 17 days", "description": "The stability of crystal form of the crystal form A and the crystal form C of the compound of formula (II) under the conditions of illumination, high humidity (92.5% RH), high temperature (60° C.) and acceleration (40° C./75% RH) was investigated.\nIllumination test chamber, model: SHH-100GD-2, conditions: 5000±500 lux (visible light) and 90 mw/cm^2 (ultraviolet).\nElectrothermal blowing dry box, model: GZX-9140MBE, conditions: 60° C.\nConstant temperature and humidity chamber, model: LDS-800Y, conditions: 40° C./75% RH.\nConstant temperature and humidity chamber, model: SHH-250SD, conditions: 25° C., 92.5% RH.\nAn appropriate amount of the crystal form A of the compound of formula (II) was weighed and placed in a dry and clean weighing bottle. The sample was spread into a thin layer, and fully exposed to assay conditions (60° C., 92.5% RH, illumination) and acceleration conditions (40° C./75% RH). After 17 days, the compound was taken out and determined for related substances and crystal form. […]"}}, "data": [{"smiles": "COc1cc2ncnc(Nc3cccc(Cl)c3F)c2cc1N1CC2(CN(C)C2)OC1=O.Cc1ccc(S(=O)(=O)O)cc1", "note": "[crystal form A of the compound of formula (II)]", "values": [{"measurement": "ΔW (weight increase by moisture absorption)", "setting": "[1]; 25° C. and 80% RH", "result": 1.329, "unit": "%"}, {"measurement": "Classification of hygroscopicity", "setting": "[1]; 25° C., 80% RH", "result": "slightly hygroscopic"}, {"measurement": "Crystal form change in water activity assay", "setting": "[2]; water activity 0.1 and 0.3, 25° C.", "result": "not changed"}, {"measurement": "Crystal form change in water activity assay", "setting": "[2]; water activity greater than 0.3, 25° C.", "result": "changed to the crystal form C"}, {"measurement": "Solubility (24 hours)", "setting": "[3]; 0.01 mol/L HCl", "result": 7941, "unit": "µg/mL"}, {"measurement": "Solubility (conclusion)", "setting": "[3]; buffer solutions below pH 6.8 and purified water", "result": "high solubility"}, {"measurement": "Final pH", "setting": "[3]; 0.01 mol/L HCl", "result": 3.59}, {"measurement": "Final pH", "setting": "[3]; pH 3.8 buffer solution", "result": 3.988}, {"measurement": "Final pH", "setting": "[3]; pH 4.5 buffer solution", "result": 4.531}, {"measurement": "Final pH", "setting": "[3]; pH 5.5 buffer solution", "result": 5.499}, {"measurement": "Final pH", "setting": "[3]; pH 6.0 buffer solution", "result": 5.900}, {"measurement": "Final pH", "setting": "[3]; pH 6.8 buffer solution", "result": 6.588}, {"measurement": "Final pH", "setting": "[3]; pH 7.4 buffer solution", "result": 7.096}, {"measurement": "Final pH", "setting": "[3]; water", "result": 5.296}, {"measurement": "Evaluation of dissolution property", "setting": "[3]; merged cell: 0.1 mol/L HCl, 0.01 mol/L HCl, pH 3.8, 4.5, 5.5, 6.0 buffer solutions and water", "result": "High solubility"}, {"measurement": "Evaluation of dissolution property", "setting": "[3]; merged cell: pH 6.8 and pH 7.4 buffer solutions", "result": "Low solubility"}, {"measurement": "Solubility (2 hours)", "setting": "[3]; pH 3.8 buffer solution", "result": 3749, "unit": "µg/mL"}, {"measurement": "Solubility (24 hours)", "setting": "[3]; pH 3.8 buffer solution", "result": 3645, "unit": "µg/mL"}, {"measurement": "Solubility (2 hours)", "setting": "[3]; pH 4.5 buffer solution", "result": 3824, "unit": "µg/mL"}, {"measurement": "Solubility (24 hours)", "setting": "[3]; pH 4.5 buffer solution", "result": 3141, "unit": "µg/mL"}, {"measurement": "Solubility (2 hours)", "setting": "[3]; pH 5.5 buffer solution", "result": 3571, "unit": "µg/mL"}, {"measurement": "Solubility (2 hours)", "setting": "[3]; pH 6.0 buffer solution", "result": 3785, "unit": "µg/mL"}, {"measurement": "Solubility (24 hours)", "setting": "[3]; pH 6.0 buffer solution", "result": 3638, "unit": "µg/mL"}, {"measurement": "Solubility (2 hours)", "setting": "[3]; water", "result": 2720, "unit": "µg/mL"}, {"measurement": "Stability compared with the crystal form D of the maleate of the compound of formula (I)", "setting": "[4]", "result": "better"}, {"measurement": "Related substance at relative retention time 0.24", "setting": "[4]; 40° C. - 75% RH - 17 days", "result": 0.03}, {"measurement": "Related substance at relative retention time 0.67", "setting": "[4]; 40° C. - 75% RH - 17 days", "result": 0.16}, {"measurement": "Related substance at relative retention time 0.88", "setting": "[4]; 40° C. - 75% RH - 17 days", "result": 0.04}, {"measurement": "Related substance at relative retention time 0.92", "setting": "[4]; 40° C. - 75% RH - 17 days", "result": 0.04}, {"measurement": "Related substance at relative retention time 1.24", "setting": "[4]; 40° C. - 75% RH - 17 days", "result": 0.15}, {"measurement": "Related substance at relative retention time 1.30", "setting": "[4]; 40° C. - 75% RH - 17 days", "result": 0.18}, {"measurement": "Related substance at relative retention time 1.56", "setting": "[4]; 40° C. - 75% RH - 17 days", "result": 0.04}, {"measurement": "Related substance at relative retention time 1.76", "setting": "[4]; 40° C. - 75% RH - 17 days", "result": 0.04}, {"measurement": "Total impurity", "setting": "[4]; 40° C. - 75% RH - 17 days", "result": 0.66}, {"measurement": "Related substance at relative retention time 0.24", "setting": "[4]; 60° C. - 17 days", "result": 0.03}, {"measurement": "Related substance at relative retention time 0.67", "setting": "[4]; 60° C. - 17 days", "result": 0.91}, {"measurement": "Related substance at relative retention time 0.88", "setting": "[4]; 60° C. - 17 days", "result": 0.05}, {"measurement": "Related substance at relative retention time 0.92", "setting": "[4]; 60° C. - 17 days", "result": 0.03}, {"measurement": "Related substance at relative retention time 1.24", "setting": "[4]; 60° C. - 17 days", "result": 0.15}, {"measurement": "Related substance at relative retention time 1.30", "setting": "[4]; 60° C. - 17 days", "result": 0.16}, {"measurement": "Related substance at relative retention time 1.56", "setting": "[4]; 60° C. - 17 days", "result": 0.04}, {"measurement": "Related substance at relative retention time 1.76", "setting": "[4]; 60° C. - 17 days", "result": 0.07}, {"measurement": "Total impurity", "setting": "[4]; 60° C. - 17 days", "result": 1.44}, {"measurement": "Related substance at relative retention time 0.24", "setting": "[4]; 92.5% RH - 17 days", "result": 0.03}, {"measurement": "Related substance at relative retention time 0.67", "setting": "[4]; 92.5% RH - 17 days", "result": 0.05}, {"measurement": "Related substance at relative retention time 0.88", "setting": "[4]; 92.5% RH - 17 days", "result": 0.04}, {"measurement": "Related substance at relative retention time 0.92", "setting": "[4]; 92.5% RH - 17 days", "result": 0.04}, {"measurement": "Related substance at relative retention time 1.24", "setting": "[4]; 92.5% RH - 17 days", "result": 0.14}, {"measurement": "Related substance at relative retention time 1.30", "setting": "[4]; 92.5% RH - 17 days", "result": 0.18}, {"measurement": "Related substance at relative retention time 1.56", "setting": "[4]; 92.5% RH - 17 days", "result": 0.04}, {"measurement": "Related substance at relative retention time 1.76", "setting": "[4]; 92.5% RH - 17 days", "result": 0.02}, {"measurement": "Total impurity", "setting": "[4]; 92.5% RH - 17 days", "result": 0.54}, {"measurement": "Related substance at relative retention time 0.24", "setting": "[4]; Illumination - 17 days", "result": 0.03}, {"measurement": "Related substance at relative retention time 0.67", "setting": "[4]; Illumination - 17 days", "result": 0.07}, {"measurement": "Related substance at relative retention time 0.88", "setting": "[4]; Illumination - 17 days", "result": 0.04}, {"measurement": "Related substance at relative retention time 0.92", "setting": "[4]; Illumination - 17 days", "result": 0.05}, {"measurement": "Related substance at relative retention time 1.24", "setting": "[4]; Illumination - 17 days", "result": 0.13}, {"measurement": "Related substance at relative retention time 1.30", "setting": "[4]; Illumination - 17 days", "result": 0.17}, {"measurement": "Related substance at relative retention time 1.56", "setting": "[4]; Illumination - 17 days", "result": 0.04}, {"measurement": "Total impurity", "setting": "[4]; Illumination - 17 days", "result": 0.46}, {"measurement": "Related substance at relative retention time 0.24", "setting": "[4]; Initial sample", "result": 0.03}, {"measurement": "Related substance at relative retention time 0.67", "setting": "[4]; Initial sample", "result": 0.05}, {"measurement": "Related substance at relative retention time 0.88", "setting": "[4]; Initial sample", "result": 0.03}, {"measurement": "Related substance at relative retention time 1.24", "setting": "[4]; Initial sample", "result": 0.15}, {"measurement": "Related substance at relative retention time 1.30", "setting": "[4]; Initial sample", "result": 0.18}, {"measurement": "Related substance at relative retention time 1.56", "setting": "[4]; Initial sample", "result": 0.04}, {"measurement": "Total impurity", "setting": "[4]; Initial sample", "result": 0.53}, {"measurement": "Change of crystal form", "setting": "[4]; acceleration (40° C./75% RH)", "result": "not changed"}, {"measurement": "Change of crystal form", "setting": "[4]; high humidity (92.5% RH)", "result": "changed"}, {"measurement": "Change of crystal form", "setting": "[4]; high temperature (60° C.)", "result": "not changed"}, {"measurement": "Change of crystal form", "setting": "[4]; illumination", "result": "not changed"}, {"measurement": "Formation of degradation impurity (conclusion)", "setting": "[4]; illumination, high temperature, high humidity, acceleration", "result": "produces a degradation impurity only under the condition of high temperature"}]}]}
